Consider 1 molecule from patent publication US8415321B2, “Nucleoside derivatives for treatment of Caliciviridae infections, including Norovirus infections” (priority 2008, dated 2013).

In the assay the test system is Norwalk GI.1 replicon. Nature of the assay: Norwalk GI.1 replicon assay (in vitro anti-viral activity). Format: cell-based. The settings on record: Norovirus. The text has this:
The Norwalk GI.1 strain (Chang, K. O., et al. (2006) Virology 353:463-473), the GII-4 strain replicon, as well other Norovirus replicons can be used in assays to determine the in vitro antiviral activity of the compounds described herein, or other compounds or compound libraries. In some embodiments, the replicon systems are subgenomic and therefore allow evaluation of small molecule inhibitors of non-structural proteins. This can provide the same benefits to Norovirus drug discovery that Hepatitis C replicons contributed to the discovery of therapeutics useful for treatment of that virus (Stuyver, L. J., et al. (2006) Antimicrob. Agents Chemother. 47:244-254).

`CC1(O)C(O)[C@@H](CO)O[C@H]1n1ccc(N)nc1=O` (some centres unmarked) [2′-C-methyl-cytosine]: a half-maximal response (EC50) required 2.1 µM and the EC90 (as a rule, the concentration needed for an effect of 90%) was 8.9 µM.
